The target in this assay is T1, BACE1 (Homo sapiens, UniProt P56817).
T1 construct: Human HEK293 cells which are stably transfected with a vector expressing a cDNA of the human APP wt gene (APP695); endogenous in cells; host or cells: HEK293 stably transfected with human APP695 wt
T1 sequence (P56817 46-501): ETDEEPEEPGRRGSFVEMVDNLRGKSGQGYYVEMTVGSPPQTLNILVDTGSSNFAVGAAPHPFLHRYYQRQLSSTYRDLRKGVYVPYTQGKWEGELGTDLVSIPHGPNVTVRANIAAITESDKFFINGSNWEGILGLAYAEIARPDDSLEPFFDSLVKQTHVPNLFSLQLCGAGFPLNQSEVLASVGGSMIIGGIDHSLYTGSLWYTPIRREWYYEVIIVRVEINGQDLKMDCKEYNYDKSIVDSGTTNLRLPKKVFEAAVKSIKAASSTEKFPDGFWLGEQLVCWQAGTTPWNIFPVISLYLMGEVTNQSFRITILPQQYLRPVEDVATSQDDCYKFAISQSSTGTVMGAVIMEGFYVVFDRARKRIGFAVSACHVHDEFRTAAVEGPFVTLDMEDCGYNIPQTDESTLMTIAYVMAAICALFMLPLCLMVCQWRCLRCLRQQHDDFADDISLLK
In words: Cellular Aβ-lowering assay (Aβ40 ELISA). It is filed as cell-based. The settings on record: HEK293 cells stably expressing human APP wt (APP695); Aβ40 in supernatant after 18-20 hrs; read-out: BACE1 cell act. Aβ40 IC50. How it is done: Cellular Aβ-Lowering Assay:
Human HEK293 cells which are stably transfected with a vector expressing a cDNA of the human APP wt gene (APP695) were used to assess the potency of the compounds in a cellular assay. The cells were seeded in 96-well microtiter plates in cell culture medium (Iscove, plus 10% (v/v) fetal bovine serum, glutamine, penicillin/streptomycin) to about 80% confluence and the compounds were added at a 10× concentration in 1/10 volume of medium without FCS containing 8% DMSO (final concentration of DMSO was kept at 0.8% v/v). After 18-20 hrs incubation at 37° C. and 5% CO2 in a humidified incubator the culture supernatant was harvested for the determination of Aβ40 concentrations. 96 well ELISA plates (e.g., Nunc MaxiSorb) were coated with monoclonal antibody which specifically recognize the C-terminal end of Aβ40 (Brockhaus et al., NeuroReport 9, 1481-1486; 1998). After blocking of non-specific binding sites with e.g. 1% BSA and washing, the culture supernatants were added in suitable dilutions together with a horseradish peroxidase-coupled Aβ detection antibody (e.g., antibody 4G8, Senetek, Maryland Heights, Mo.) and incubated for 5 to 7 hrs. Subsequently the wells of the microtiter plate were washed extensively with Tris-buffered saline containing 0.05% Tween 20 and the assay was developed with tetramethylbenzidine/H2O2 in citric acid buffer. After stopping the reaction with one volume 1 N H2SO4 the reaction was measured in an ELISA reader at 450 nm wavelength. The concentrations of Aβ in the culture supernatants were calculated from a standard curve obtained with known amounts of pure Aβ peptide.
Broadly, the IC50 is the concentration needed to halve the response being measured. For `NC1=N[C@](CF)(c2cc(NC(=O)c3ccc(Cl)cn3)ccc2F)[C@H]2CC(F)(F)C[C@H]2O1` [Example 4, 5-Chloro-pyridine-2-carboxylic acid [(S)-3-((1R,2R)-2-amino-6,6-difluoro-4-fluoromethyl-4,4a,5,6,7,7a-hexahydro-cyclopenta[e][1,3]oxazin-4-yl)-4-fluoro-phenyl]-amide], the IC50 was found to be 2 nM.
As for `CC#CCOc1ccc(C(=O)Nc2ccc(F)c([C@@]3(CF)N=C(N)O[C@@H]4CC(F)(F)C[C@@H]43)c2)nc1` [Example 5, 5-But-2-ynyloxy-pyridine-2-carboxylic acid [(S)-3-((1R,2R)-2-amino-6,6-difluoro-4-fluoromethyl-4,4a,5,6,7,7a-hexahydro-cyclopenta[e][1,3]oxazin-4-yl)-4-fluoro-phenyl]-amide], the IC50 was 0.8 nM.
On to `NC1=N[C@](CF)(c2cc(NC(=O)c3ncc(Cl)cc3Cl)ccc2F)[C@H]2CC(F)(F)C[C@H]2O1` [Example 6, 3,5-Dichloro-pyridine-2-carboxylic acid [(S)-3-((1R,2R)-2-amino-6,6-difluoro-4-fluoromethyl-4,4a,5,6,7,7a-hexahydro-cyclopenta[e][1,3]oxazin-4-yl)-4-fluoro-phenyl]-amide], for which the IC50 worked out at 1.7 nM.
Take `NC1=N[C@](CF)(c2cc(NC(=O)c3ncc(F)cc3F)ccc2F)[C@H]2CC(F)(F)C[C@H]2O1` [Example 8, 3,5-Difluoro-pyridine-2-carboxylic acid [(S)-3-((1R,2R)-2-amino-6,6-difluoro-4-fluoromethyl-4,4a,5,6,7,7a-hexahydro-cyclopenta[e][1,3]oxazin-4-yl)-4-fluoro-phenyl]-amide]: the IC50 was found to be 16.9 nM.
As to `NC1=N[C@](CF)(c2cc(NC(=O)c3ccc(OCC(F)(F)F)cn3)ccc2F)[C@H]2CC(F)(F)C[C@H]2O1` [Example 9, 5-(2,2,2-Trifluoro-ethoxy)-pyridine-2-carboxylic acid [(S)-3-((1R,2R)-2-amino-6,6-difluoro-4-fluoromethyl-4,4a,5,6,7,7a-hexahydro-cyclopenta[e][1,3]oxazin-4-yl)-4-fluoro-phenyl]-amide], the IC50 is 17 nM.
In the case of `NC1=N[C@](CF)(c2cc(NC(=O)c3ccc(OCC(F)(F)C(F)(F)F)cn3)ccc2F)[C@H]2CC(F)(F)C[C@H]2O1` [Example 10, 5-(2,2,3,3,3-Pentafluoro-propoxy)-pyridine-2-carboxylic acid [(S)-3-((1R,2R)-2-amino-6,6-difluoro-4-fluoromethyl-4,4a,5,6,7,7a-hexahydro-cyclopenta[e][1,3]oxazin-4-yl)-4-fluoro-phenyl]-amide], the IC50 was found to be 43 nM.
Regarding `NC1=N[C@](CF)(c2cc(NC(=O)c3ccc(OCC(F)(F)C(F)F)cn3)ccc2F)[C@H]2CC(F)(F)C[C@H]2O1` [Example 11, 5-(2,2,3,3-Tetrafluoro-propoxy)-pyridine-2-carboxylic acid [(S)-3-((1R,2R)-2-amino-6,6-difluoro-4-fluoromethyl-4,4a,5,6,7,7a-hexahydro-cyclopenta[e][1,3]oxazin-4-yl)-4-fluoro-phenyl]-amide], the IC50 came out at 14 nM.
As to `NC1=N[C@](CF)(c2cc(NC(=O)c3ccc(OCC4CC4)cn3)ccc2F)[C@H]2CC(F)(F)C[C@H]2O1` [Example 12, 5-Cyclopropylmethoxy-pyridine-2-carboxylic acid [(S)-3-((1R,2R)-2-amino-6,6-difluoro-4-fluoromethyl-4,4a,5,6,7,7a-hexahydro-cyclopenta[e][1,3]oxazin-4-yl)-4-fluoro-phenyl]-amide], the IC50 amounted to 8.6 nM.
Then `NC1=N[C@](CF)(c2cc(NC(=O)c3ccc(OC(F)F)cn3)ccc2F)[C@H]2CC(F)(F)C[C@H]2O1` [Example 13, 5-Difluoromethoxy-pyridine-2-carboxylic acid [(S)-3-((1R,2R)-2-amino-6,6-difluoro-4-fluoromethyl-4,4a,5,6,7,7a-hexahydro-cyclopenta[e][1,3]oxazin-4-yl)-4-fluoro-phenyl]-amide], with 3.5 nM.
Turning to `NC1=N[C@](CF)(c2cc(NC(=O)c3ccc(OCC(F)F)cn3)ccc2F)[C@H]2CC(F)(F)C[C@H]2O1` [Example 14, 5-(2,2-Difluoro-ethoxy)-pyridine-2-carboxylic acid [(S)-3-((1R,2R)-2-amino-6,6-difluoro-4-fluoromethyl-4,4a,5,6,7,7a-hexahydro-cyclopenta[e][1,3]oxazin-4-yl)-4-fluoro-phenyl]-amide], the IC50 came out at 23 nM.
For the compound `NC1=N[C@](CF)(c2cc(NC(=O)c3ccc(C(F)(F)F)cn3)ccc2F)[C@H]2CC(F)(F)C[C@H]2O1` [Example 15, 5-Trifluoromethyl-pyridine-2-carboxylic acid [(S)-3-((1R,2R)-2-amino-6,6-difluoro-4-fluoromethyl-4,4a,5,6,7,7a-hexahydro-cyclopenta[e][1,3]oxazin-4-yl)-4-fluoro-phenyl]-amide], the IC50 is 2.8 nM.
Regarding `NC1=N[C@](CF)(c2cc(NC(=O)c3ncc(C(F)(F)F)cc3Cl)ccc2F)[C@H]2CC(F)(F)C[C@H]2O1` [Example 16, 3-Chloro-5-trifluoromethyl-pyridine-2-carboxylic acid [(S)-3-((1R,2R)-2-amino-6,6-difluoro-4-fluoromethyl-4,4a,5,6,7,7a-hexahydro-cyclopenta[e][1,3]oxazin-4-yl)-4-fluoro-phenyl]-amide], the half-inhibitory concentration (IC50) was determined as 0.8 nM.
The same measure for `NC1=N[C@](CF)(c2cc(NC(=O)c3ncc(C(F)(F)F)cc3F)ccc2F)[C@H]2CC(F)(F)C[C@H]2O1` [Example 17, 3-Fluoro-5-trifluoromethyl-pyridine-2-carboxylic acid [(S)-3-((1R,2R)-2-amino-6,6-difluoro-4-fluoromethyl-4,4a,5,6,7,7a-hexahydro-cyclopenta[e][1,3]oxazin-4-yl)-4-fluoro-phenyl]-amide]: 4.1 nM.
The same measure for `N#Cc1cnc(C(=O)Nc2ccc(F)c([C@@]3(CF)N=C(N)O[C@@H]4CC(F)(F)C[C@@H]43)c2)c(Cl)c1` [Example 19, 3-Chloro-5-cyano-pyridine-2-carboxylic acid [(S)-3-((1R,2R)-2-amino-6,6-difluoro-4-fluoromethyl-4,4a,5,6,7,7a-hexahydro-cyclopenta[e][1,3]oxazin-4-yl)-4-fluoro-phenyl]-amide]: 5.5 nM; for `NC1=N[C@](CF)(c2cc(NC(=O)c3cnc(OC(F)F)cn3)ccc2F)[C@H]2CC(F)(F)C[C@H]2O1` [Example 21, 5-Difluoromethoxy-pyrazine-2-carboxylic acid [(S)-3-((1R,2R)-2-amino-6,6-difluoro-4-fluoromethyl-4,4a,5,6,7,7a-hexahydro-cyclopenta[e][1,3]oxazin-4-yl)-4-fluoro-phenyl]-amide]: 0.9 nM.
In the case of `NC1=N[C@](CF)(c2cc(NC(=O)c3cnc(OCC(F)(F)F)cn3)ccc2F)[C@H]2CC(F)(F)C[C@H]2O1` [Example 22, 5-(2,2,2-Trifluoro-ethoxy)-pyrazine-2-carboxylic acid [(S)-3-((1R,2R)-2-amino-6,6-difluoro-4-fluoromethyl-4,4a,5,6,7,7a-hexahydro-cyclopenta[e][1,3]oxazin-4-yl)-4-fluoro-phenyl]-amide], the IC50 was found to be 2.5 nM.
For the compound `NC1=N[C@](CF)(c2cc(NC(=O)c3cnc(OCC(F)F)cn3)ccc2F)[C@H]2CC(F)(F)C[C@H]2O1` [Example 23, 5-(2,2-Difluoro-ethoxy)-pyrazine-2-carboxylic acid [(S)-3-((1R,2R)-2-amino-6,6-difluoro-4-fluoromethyl-4,4a,5,6,7,7a-hexahydro-cyclopenta[e][1,3]oxazin-4-yl)-4-fluoro-phenyl]-amide], the IC50 was 7.8 nM.
The same measure for `NC1=N[C@](CF)(c2cc(NC(=O)c3cnc(OCC4CC4)cn3)ccc2F)[C@H]2CC(F)(F)C[C@H]2O1` [Example 25, 5-Cyclopropylmethoxy-pyrazine-2-carboxylic acid [(S)-3-((1R,2R)-2-amino-6,6-difluoro-4-fluoromethyl-4,4a,5,6,7,7a-hexahydro-cyclopenta[e][1,3]oxazin-4-yl)-4-fluoro-phenyl]-amide]: 15 nM; for `NC1=N[C@](CF)(c2cc(NC(=O)c3cnc(OCF)cn3)ccc2F)[C@H]2CC(F)(F)C[C@H]2O1` [Example 26, 5-Fluoromethoxy-pyrazine-2-carboxylic acid [(S)-3-((1R,2R)-2-amino-6,6-difluoro-4-fluoromethyl-4,4a,5,6,7,7a-hexahydro-cyclopenta[e][1,3]oxazin-4-yl)-4-fluoro-phenyl]-amide]: 3.5 nM.
`NC1=N[C@](CF)(c2cc(NC(=O)c3cnc(Cl)cn3)ccc2F)[C@H]2CC(F)(F)C[C@H]2O1` [Example 27, 5-Chloro-pyrazine-2-carboxylic acid [(S)-3-((1R,2R)-2-amino-6,6-difluoro-4-fluoromethyl-4,4a,5,6,7,7a-hexahydro-cyclopenta[e][1,3]oxazin-4-yl)-4-fluoro-phenyl]-amide]: the IC50 stood at 660 nM.

(Values after US8476264B2, “N-(3-(2-amino-6,6-difluoro-4,4A,5,6,7,7A-hexahydro-cyclopenta[E][1,3]oxazin-4-yl)-phenylamides as BACE1 inhibitors” (Hoffmann-La Roche Inc., priority 2011, dated 2013).)
